Measured values as given in patent US10648917B2, “Luminescent compositions and applications thereof” (THE PENN STATE RESEARCH FOUNDATION, priority 2015, dated 2020).
Where two headings read alike, the source gives them in different places.

Legend:
[1] = tested on: NIH 3T3 mouse fibroblasts; experiment: In vitro cytotoxicity, CCK-8 cell viability assay; format: cell-based; details: for cell viability: 24 h
Description: NIH 3T3 mouse fibroblasts (ATCC) were used as model cells for in vitro cytotoxicity evaluations. The cells were cultured in Dulbecco's modified eagle's medium (DMEM), which had been supplemented with 10% fetal bovine serum (FBS) and 1% penicillin streptomycin. The culture flasks were kept in an incubator maintained at 37° C., 5% CO2, and 95% relative humidity. For a typical cytotoxicity study, 3T3 cells were seeded with a density of 5×10^4 cells/ml. […] of cell suspension in DMEM was added to each well in a 96-well plate and then incubated for 24 h. The culture medium was changed to 100 μL of DMEM containing the CFDs with various concentrations and followed by another 24 h incubator. A CCK-8 cell viability assay was used for a quantitative assessment of the viable cells according to the manufacturer's protocol. Viability of cells was normalized to the control of tissue culture plates (n=5).
The in vitro toxicity of CFDs was evaluated by incubating them with NIH 3T3 mouse fibroblasts at different concentrations. […] Therefore, CFDs are generally biocompatible fluorescent compounds that can be used at a high dosage. […] The red fluorescence was relatively weak since CA-Cys has relatively weak red fluorescence emission.

[2] = Photostability under continuous excitation for 3 hours; format: physicochemical; details: for photobleaching relative to Fluorescein and Rhodamine B: 3 hours continuous excitation
Description: (§1) Fluorescence spectra were recorded by a Horiba FluoroMax-4 spectrofluorometer. All samples were measured at a concentration corresponding to an optical density of 0.1 in water and a slit size of 1 nm by 1 nm unless specified. Quantum yields were also determined on same spectrofluorometer by using a Quantum-φ integration sphere at samples' maximum excitation wavelength and at an increment of 0.3 nm. Photostability studies were done by continuously exciting samples at their maximum excitation wavelength and monitoring at the maximum emission wavelength.
(§2) Fluorescence spectra were recorded on a Horiba FluoroMax-4 spectrofluorometer (Horiba Scientific, Edison N.J.). All polymer and samples were characterized at a concentration of 2 wt % in 1,4-dioxane and a slit size of 1 nm by 1 nm unless otherwise specified. The fluorescence properties of small molecule dyes were also measure in 2 wt % DI water solutions at same conditions as polymer solutions. BPLPs were also degraded in 1M K2CO3 solution at 37° C. for 24 hours and then neutralized with 1N HCl solution to pH7. The resulting degradation solutions were subject to further PL characterizations. Quantum yields were also determined on the same spectrofluorometer by using a Quantum-φ integration sphere (Horiba Scientific, Edison N.J.) at the same concentration and slit size with the blank solvent as the reference. Photostability of small molecules and polymers were determined by monitoring the emission intensity decay at their max. Excitation and emission wavelengths over 3 hours of continuous lumination in the spectrofluorometer.
Photostability of CFDs was characterized thereafter, since traditional organic dyes suffer from photobleaching. Various CFDs were tested under their maximum excitation and emission wavelengths for 3 hours, and the photoluminescence was normalized to the initial intensity.

[3] = Fluorescence spectra, absorbance and quantum yield (spectrofluorometer, integration sphere); format: physicochemical; details: for Shifting (emission shifting with excitation wavelength): CFD dyes; for Φ (quantum yield) / λem (maximum emission wavelength) / λex (maximum excitation wavelength) / ϵ (extinction coefficiency): Table III
Description: Fluorescence spectra were recorded by a Horiba FluoroMax-4 spectrofluorometer. All polymer and small molecule samples were measured at a concentration of 2% w/w in 1,4-dioxane or DI water and a slit size of 1 nm by 1 nm unless otherwise specified. Quantum yields were also determined on the same spectrofluorometer by using a Quantum-φ integration sphere at the same concentration and slit size with the blank solvent as the reference. ^1H-NMR, ^13C-NMR were performed on a JNM ECS 300 spectrometer using DMSO-d6 or D2O as solvents. Attenuated total reflection Fourier transform infrared (ATR-FTIR) spectra were collected with a Bruker V70 spectrometer using BPLP films. A Shimadzu HPLC-MS system with a Phenomenex Kinetex 2.6u XB-C18 100 mm×2.9 mm column, a SPD M20A PDA detector and a RF-20AXS fluorescence detector (Ex. 360 nm and Em. 430 nm) was used to characterize the structures of fluorophores as well. The mobile phase was a gradient of DI water and acetonitrile with 0-6 min 2% acetonitrile, 6-12 min 2%-30% acetonitrile, and 12-15 min 2% acetonitrile. The flow rate was 0.15 ml/min. Electrospray ionization mass spectroscopy (ESI-MS) was performed with a positive voltage of 4.5 kV and negative mode voltage −4.0 kV and a CDL temperature of 200° C. The analysis of the degradation products of BPLPs were conducted by immersing BPLPs in 1M K2CO3 solution at 37° C. for 24 hours. After degradation, the solutions were neutralized by 1N HCl solution to pH 7 and characterized by HPLC-MS as described above.
as §1, §2
Absorbance Spectra were recorded on Tecan Infinite M200 Pro UV-vis spectroscopy, and fluorescence spectra were recorded on Horiba FluoroMax-4 fluorospectroscopy at concentrations below 0.1 O.D. unless otherwise indicated. Quantum Yields were measured on the Quantum φ Integrating Sphere accessory to the FluoroMax-4, while lifetime measurements were determined through the Time-Correlation Single Photon Counting (TCSPC) accessory to the FluroMax-4. TCSPC was utilized in conjunction with NanoLED pulsed diode light source with peak excitation wavelength at 352 nm and at 10,000 counts peak preset. Emission was collected at the fluorescence λmax, unless otherwise indicated. For all pH-dependence experiments, sample pH was adjusted with sulfuric acid or sodium hydroxide. For all chloride-dependent quenching experiments, magnesium chloride hexahydrate (Sigma Aldrich) was used.

[4] = 2500 μg/ml, vs control (p<0.01)
[5] = Dianion protolytic state (physiological pH)

In the case of `CC(C(=O)O)N1C(=O)C=C(C(=O)O)CC1=O` (centres unmarked) [CA-Ala], the cell viability ([1]; 1000 μg/ml, vs control) is reported as “no significant decrease in cell viability”, the cell viability [1, 4] is reported as “significant decrease” and the “photobleaching relative to Fluorescein and Rhodamine B” value [2] is reported as “photobleaching on par with Fluorescein but more resistant than Rhodamine B”. The “Shifting (emission shifting with excitation wavelength)” value [3] was “Yes”, the “Φ (quantum yield)” value [3] was 21.2% and the “λem (maximum emission wavelength)” value [3] was 430 nm. For the same compound, the “λex (maximum excitation wavelength)” value [3] was 361 nm, the “ϵ (extinction coefficiency)” value [3] was 79 M⁻¹ cm⁻¹ and the band-shift effect ([3]; in acetone (ε=20.7)) was “moderate”. For the same compound, the band-shift effect ([3]; in dichloromethane (ε=8.93)) was “minimal”, the band-shift effect ([3]; in water (ε=80.1)) was “strongest” and the “Max. Em. Wavelength” value ([3]; representative CFDs, Table I) was 430 nm. The “Max. Ex. Wavelength” value ([3]; representative CFDs, Table I) was 361 nm and the “Quantum Yield” value ([3]; representative CFDs, Table I) was 21.2%.
In the case of `O=C(O)c1cc2n(c(=O)c1)C(C(=O)O)CS2` (centres unmarked) [CA-Cys], the cell viability ([1]; 1000 μg/ml, vs control) is reported as “no significant decrease in cell viability”, the cell viability [1, 4] is reported as “significant decrease” and the “dosage with in-vitro cytocompatibility” value ([1]; 3T3 cell line) is reported as “up to 10.3 mM”. The “photobleaching relative to Fluorescein and Rhodamine B” value [2] was “less stable”, the photostability ([2]; FIG. 19) was “strong photostability” and the luminescence lost ([2]; after 3 hours continuous excitation) was “less than 3%”. The fluorescence remaining ([2]; after continuous UV excitation for 3 hours) was 95%, the Quantum Yield [3] was ≤ 81% and the extinction coefficient [3] was 8640 M⁻¹ cm⁻¹. The “Abs. Max” value ([3]; Anion protolytic state) was 354 nm, the Em. max ([3]; Anion protolytic state) was 440 nm and the Exc. max ([3]; Anion protolytic state) was 360 nm. For the same compound, the Stokes shift ([3]; Anion protolytic state) was 80 nm, the Φ ([3]; Anion protolytic state) was 67.24% and the ε ([3]; Anion protolytic state) was 7454 M⁻¹ cm⁻¹. The “Shifting (emission shifting with excitation wavelength)” value [3] was “no fluorescence band shifting was observed and No”, the “Abs. Max” value ([3]; Dianion protolytic state) was 346 nm and the Em. max ([3]; Dianion protolytic state) was 418 nm. For the same compound, the Exc. max ([3]; Dianion protolytic state) was 350 nm, the Stokes shift [3, 5] was 67 nm and the Φ [3, 5] was 81.20%. For the same compound, the ε [3, 5] was ~8640 M⁻¹ cm⁻¹, the “Abs. Max” value ([3]; Neutral protolytic state) was 362 nm and the Em. max ([3]; Neutral protolytic state) was 445 nm. The Exc. max ([3]; Neutral protolytic state) was 366 nm, the Stokes shift ([3]; Neutral protolytic state) was 80 nm and the Φ ([3]; Neutral protolytic state) was “Quenched”. For the same compound, the ε ([3]; Neutral protolytic state) was ~8300 M⁻¹ cm⁻¹, the “Φ (quantum yield)” value [3] was 81.4% and the “λem (maximum emission wavelength)” value [3] was 445 nm. The “λex (maximum excitation wavelength)” value [3] was 364 nm, the “ϵ (extinction coefficiency)” value [3] was 8640 M⁻¹ cm⁻¹ and the “quenching in organic solvents compared to water” value ([3]; dioxane, acetone, ethanol, isopropanol, DMSO) was “minimal quenching”. For the same compound, the “Max. Em. Wavelength” value ([3]; representative CFDs, Table I) was 445 nm, the “Max. Ex. Wavelength” value ([3]; representative CFDs, Table I) was 364 nm and the “Quantum Yield” value ([3]; representative CFDs, Table I) was 81.4%.
